Laboratory results published in patent US11969408B2, “Method for improving mitophagy in subjects” (Amazentis SA, priority 2017, dated 2024).

Tested on: pyruvate, lactate and glucose in plasma
Experiment: Plasma metabolomics: pyruvate, lactate, glucose plasma levels
Format: in vivo, human
Settings: 1000 mg cohort, day −1 to day 28
Protocol: Blood sampling was performed for analysis on plasma at the exact time-points described in the table below: Blood handling procedures: at each time point indicated in the table, a 6 mL blood sample was drawn into K2-EDTA coated tube. The blood samples were gently inverted a few times for complete mixing with the anticoagulant. The exact time of sample collection was recorded on the eCRF. Within 30 minutes following blood collection, each blood sample was centrifuged at 1500 g for 10 minutes at 4° C. 30 minutes after the centrifugation, the top layer of human plasma was transferred into 2 pre-labelled polypropylene tubes, containing approximately 1500 μL of plasma. Blood cells were not transferred. All sample tubes were clearly and appropriately labelled. Tubes were capped immediately from each time point and the plasma was be frozen in an upright position at approximately −80° C. for storage. Measurement of metabolites: Samples were extracted and split into equal parts for analysis on the LC/MS/MS and Polar LC platforms. Proprietary software was used to match ions to an in-house library of standards for metabolite identification and for metabolite quantitation by peak area integration. A total of 781 metabolites were quantified. Metabolomics is the study of known measurable metabolites in a sample. […]

O=c1oc2cc(O)ccc2c2ccc(O)cc12 [Urolithin A]
pyruvate, lactate and glucose levels in plasma: no significant change
